Experimental findings from patent US20260109725A1, “MACROLIDE SENOLYTIC COMPOUNDS” (LUNELLA BIOTECH, INC., priority 2022, published 2026) are described below.

The subject of assay [1] is MRC-5 cells treated with BrdU (senescent fibroblasts). Kind of assay: SRB assay, BrdU-treated (senescent) MRC-5 cells. Type of assay: cell-based, human. Here is the method: (§1) For example, in one assay bromodeoxyuridine (5-bromo-2′-deoxyuridine), also known as BrdU, was used to induce senescence in a cell population. BrdU is an analog of the nucleoside thymidine commonly used to identify proliferating cells. BrdU induces controlled DNA damage, and drives cells towards senescence with high efficiency. In the BrdU assay, normal fibroblasts are subjected to prolonged culture (8-days) in the presence of BrdU at 100 μM to induce controlled DNA-damage and senescence. […] Senolytic activity was assessed using the sulforhodamine B assay, also known in the art as the SRB assay. This assay measures the amount of protein remaining attached to the tissue-culture dishes, and is a surrogate marker for cell viability.
(§2) FIG. 1 compares SRB assay results for different concentrations of Azithromycin (100 µM and 50 μM) and Compound [I] (100 μM and 50 μM) of the present approach, on both control MRC-5 cells and MRC-5 cells treated with BrdU. […] (labelled as “Azi-Gal” in FIG. 1) for another 5 days. After that, the SRB assay was performed to determine the effects of the drug on cell viability, using normal MRC-5 cells as the control. […] However, at 50 μM Azithromycin had no effect on either the control cells or senescent cells.
(§3) BrdU Assay: Cells were plated into 24-well plates. Next day, half of the plate was treated with 100 μM of BrdU while control wells were treated with vehicle only (DMSO) and incubated for 8 days at 37° C. in a 5% CO2 humidified atmosphere. After 8 days of BrdU treatment cells were treated with various test compounds or drugs (e.g., azithromycin, roxithromycin, telithromycin, erythromycin, etc.) for another 3-5 days. BrdU or vehicle treatments were continued during the drug treatments as well.
(§4) Sulphorhodamine B assay: After the incubation of the plates cell viability was measured by Sulphorhodamine B assay (SRB). The assay is based on the measurement of cellular protein contents. Cells were fixed with 10% Trichloroacetic acid (TCA) for 1 hour at […], and were dried overnight at room temperature. Then, plates were incubated with SRB for 30 min, washed twice with 1% acetic acid and air dried for at least 1 h. Finally, the protein-bound dye was dissolved in a 10 mM Tris, pH 8.8, solution and read using a plate reader at 540-nm.
On the technique in general: Sulforhodamine B stains cellular protein and so reports cell mass.

The test system of another assay is MCF-7 cells. Kind of assay: mammosphere formation assay (3D anchorage independent growth). The class given is cell-based, human. Here is the method:
The compounds disclosed herein may also be used as therapeutic agent to selectively eradicate CSCs for treating and/or preventing tumor recurrence and/or metastasis. […] This assay measures the amount of residual protein that adheres to tissue culture dishes and is a surrogate marker of cell viability.
3D Anchorage Independent Growth Assay: This assay is also referred to as the mammosphere formation assay. A single-cell suspension was prepared using enzymatic, and manual disaggregation (25-g needle). Then, cells were plated at a density of 500 cells/cm^2 in mammosphere medium (DMEM-F12+1X B-27 Plus Supplement+20 ng/ml EGF+Pen/Strep) under non-adherent conditions, in culture dishes pre-coated with (2-hydroxyethylmethacrylate) (poly-HEMA, Sigma Aldrich Inc.), called “mammosphere plates.” Cells were grown for 5 days and maintained in a humidified incubator at 37° C. After 5 days of culture, 3D-mammospheres >50 μm were counted using an eye piece (“graticule”), and the percentage of cells plated which formed spheres was calculated and is referred to as percent mammosphere formation, and was normalized to one (1=100% MFE). 3D mammosphere formation efficiency (MFE) was analyzed in both the ATP-low and ATP-high sub-populations of cells. All 3D mammosphere experiments were performed in triplicate, at least 3 times independently.

For assay [2], the system named is Acinetobacter baumannii ATCC 17978. The experiment in a line: in vitro broth microdilution assay (MIC). The class given is cell-based. The settings on record: ATCC17978. The method, then:
(§5) This is advantageous because use of the compounds of the present approach as therapeutic agents will have less of an impact on the development of antibiotic resistance. For example, embodiments of the present approach were screened for antibiotic activity, using the in vitro broth microdilution assay. […] The assay conditions, described by the Clinical and Laboratory Standards Institute were used for preparation of the inoculum, growth medium, and end point reading. Test substance was dissolved in 100% DMSO, suspended completely by vortexing, diluted by 2-fold serial titrations in the same vehicle, for a total of 11 test concentrations. A 4 μL aliquot of each dilution was added to 196 μL of broth medium seeded with the organism suspension in wells of a 96 well plate (bacterial count: 2-8×10(5) colony forming units/mL final). The final volume was 200 μL in each well and the final DMSO concentration was 2 percent. Test concentrations were 0.1 to 100 μM. Following incubation, the test plates were visually examined and wells were scored for growth or complete growth inhibition to define the minimum inhibitory concentration. Each test substance was evaluated with replicates. Vehicle controls and an active reference agent were used as blank and positive controls. Note that MRSA represents methicillin-resistant Staphylococcus aureus, and VRE represents vancomycin resistant Enterococcus.

For assay [3], the system named is Haemophilus influenzae ATCC 49247. Kind of assay: in vitro broth microdilution assay (MIC). The class given is cell-based. The conditions noted are these: ATCC49247; Haemophilus influenzae ATCC 49247, QC strain. Here is the method: as §5
In general terms: In broth dilution the organism is exposed to a series of concentrations in liquid medium.

The subject of assay [4] is Pseudomonas aeruginosa ATCC 27853. The experiment in a line: in vitro broth microdilution assay (MIC). Type of assay: cell-based. The conditions noted are these: ATCC27853; Pseudomonas aeruginosa ATCC 27853, QC strain. The method, then: as §5
Assay [5] concerns Enterococcus faecium ATCC 700221 VanA VRE. The experiment in a line: in vitro broth microdilution assay (MIC). Type of assay: cell-based. Here is the method: as §5
In assay [6] the test system is Staphylococcus aureus ATCC 29213. Kind of assay: in vitro broth microdilution assay (MIC). The settings on record: ATCC29213; Staphylococcus aureus ATCC 29213, QC strain. The class given is cell-based. The method, then:
as §5

Assay [7] relates to Escherichia coli ATCC 25922. Kind of assay: in vitro broth microdilution assay (MIC). Type of assay: cell-based. The settings on record: ATCC25922; Escherichia coli ATCC 25922, QC strain. Here is the method: as §5
The subject of assay [8] is Klebsiella pneumoniae ATCC 43816. The experiment in a line: in vitro broth microdilution assay (MIC). Type of assay: cell-based. The settings on record: ATCC43816. The method, then: as §5
Assay [9] has as its system Staphylococcus aureus ATCC 33591 MRSA. The experiment in a line: in vitro broth microdilution assay (MIC). Type of assay: cell-based. Here is the method:
as §5

Assay [10] relates to Escherichia coli JW5503 DEL-tolC. The experiment in a line: in vitro broth microdilution assay (MIC). Type of assay: cell-based. The settings on record: JW5503DELTOLC. Here is the method:
as §5

Assay [11] relates to Streptococcus pneumoniae ATCC 49619. The experiment in a line: in vitro broth microdilution assay (MIC). The class given is cell-based. The settings on record: ATCC49619; Streptococcus pneumoniae ATCC 49619, QC strain. Here is the method: as §5
The test system of assay [12] is Enterococcus faecalis ATCC 29212. Kind of assay: in vitro broth microdilution assay (MIC). Type of assay: cell-based. The conditions noted are these: ATCC29212; Enterococcus faecalis ATCC 29212, QC strain. Here is the method: as §5
Assay [13] relates to control MRC-5 cells (normal lung fibroblasts). Kind of assay: SRB assay, control (normal) MRC-5 cells. Type of assay: cell-based, human. The method, then:
as §1, §2, §3, §4

Setting [14] is: SRB, control vs BrdU-treated MRC5.

Converted amounts (≈) assume the structure as drawn.

Usually IC50 stands for the concentration at which inhibition is half-maximal. As for `CC[C@H]1OC(=O)[C@H](C)[C@@H](O[C@H]2C[C@@](C)(OC)[C@@H](O)[C@H](C)O2)[C@H](C)[C@@H](O[C@@H]2O[C@H](C)C[C@H](N(C)C)[C@H]2O)[C@](C)(O)C[C@@H](C)CN(C)[C@H](C)[C@@H](O)[C@]1(C)O` [Azithromycin, reference compound], in assay [1] (50 μM, 5 days after 8 days BrdU), the “effect on senescent cells (SRB)” value is listed as “no effect”. The “effect on senescent MRC-5 fibroblasts (SRB)” value in [1] (100 μM, 5 days after 8 days BrdU) is on record as “selectively killed”. The “inhibition of MCF-7 cells compared to the control (mammosphere formation)” value in the assay with MCF-7 cells (200 μM) is “about 30%”. This compound also registered an IC50 in the assay with MCF-7 cells (Homo sapiens, MCF7) of 118 µM. Also, the MIC is 6.25 µM (≈ 4.68 µg/mL) in assay [2]; 3.12 µM (≈ 2.34 µg/mL) in assay [3]; 100 µM (≈ 74.9 µg/mL) in assay [4]; greater than 100 µM in [5]; 1.56 µM (≈ 1.17 µg/mL) in assay [6]; 6.25 µM (≈ 4.68 µg/mL) in assay [7]. The MIC in assay [8] was 25 µM (≈ 18.7 µg/mL); in assay [9], greater than 100 µM; in [10] it was 1.56 µM (≈ 1.17 µg/mL); in assay [11], 0.39 µM (≈ 0.292 µg/mL); in [12], 6.25 µM (≈ 4.68 µg/mL). In addition, the “effect on control cells (SRB)” value in assay [13] (50 μM, 5 days) is “no effect”. For the same compound, the “effect on viability of normal MRC-5 lung fibroblasts (SRB)” value in assay [13] (100 μM, 5 days) was “no effect”.
In the case of `CC[C@H]1OC(=O)[C@H](C)[C@@H](O[C@@H]2C[C@@](C)(OC)[C@@H](O)[C@H](C)O2)[C@H](C)[C@@H](O[C@@H]2O[C@H](C)C[C@H](N(C)C)[C@H]2OC(=O)CCC(=O)OCc2ccc(O[C@@H]3O[C@H](COC(C)=O)[C@H](OC(C)=O)[C@H](OC(C)=O)[C@H]3OC(C)=O)c([N+](=O)[O-])c2)[C@](C)(O)C[C@@H](C)CN(C)[C@H](C)[C@@H](O)[C@]1(C)O` [Compound [III], O4-[(2S,3R,4S,6R)-4-(dimethylamino)-2-[[(2R,3S,4R,5R,8R,10R,11R,12S,13S,14R)-2-ethyl-3,4,10-trihydroxy-13-[(2S,4R,5S,6S)-5-hydroxy-4-methoxy-4,6-dimethyl-tetrahydropyran-2-yl]oxy-3,5,6,8,10,12,14-heptamethyl-15-oxo-1-oxa-6-azacyclopentadec-11-yl]oxy]-6-methyl-tetrahydropyran-3-yl] O1-[[3-nitro-4-[(2S,3R,4S,5S,6R)-3,4,5-triacetoxy-6-(acetoxymethyl)tetrahydropyran-2-yl]oxy-phenyl]methyl]butanedioate], in assay [1] (setting [14]), the “potency relative to the parent compound, Azithromycin (SRB)” value is reported as “about half”; the “senolytic activity compared to Azithromycin and Compound [I]” value is listed as “significantly less senolytic activity”.
Take `CC[C@H]1OC(=O)[C@H](C)[C@@H](O[C@@H]2C[C@@](C)(OC)[C@@H](O)[C@H](C)O2)[C@H](C)[C@@H](O[C@@H]2O[C@H](C)C[C@H](N(C)C(=O)OCc3ccc(O[C@@H]4O[C@H](COC(C)=O)[C@H](OC(C)=O)[C@H](OC(C)=O)[C@H]4OC(C)=O)c([N+](=O)[O-])c3)[C@H]2O)[C@](C)(O)C[C@@H](C)CN(C)[C@H](C)[C@@H](O)[C@]1(C)O` [Compound [IV], [(2R,3S,4S,5R,6S)-3,4,5-triacetoxy-6-[4-[[[(2S,3R,4S,6R)-2-[[(2R,3S,4R,5R,8R,10R,11R,12S,13S,14R)-2-ethyl-3,4,10-trihydroxy-13-[(2S,4R,5S,6S)-5-hydroxy-4-methoxy-4,6-dimethyl-tetrahydropyran-2-yl]oxy-3,5,6,8,10,12,14-heptamethyl-15-oxo-1-oxa-6-azacyclopentadec-11-yl]oxy]-3-hydroxy-6-methyl-tetrahydropyran-4-yl]-methyl-carbamoyl]oxymethyl]-2-nitro-phenoxy]tetrahydropyran-2-yl]methyl acetate]: the “selectivity for senescent cells over normal, non-senescent cells (SRB)” value in [1] (control vs BrdU-treated MRC5) is “no little selectivity”.
For the compound `CC[C@H]1OC(=O)[C@H](C)[C@@H](O[C@@H]2C[C@@](C)(OC)[C@@H](O)[C@H](C)O2)[C@H](C)[C@@H](O[C@@H]2O[C@H](C)C[C@H](N(C)C)[C@H]2OC(=O)OCc2ccc(O[C@@H]3O[C@H](COC(C)=O)[C@H](OC(C)=O)[C@H](OC(C)=O)[C@H]3OC(C)=O)c([N+](=O)[O-])c2)[C@](C)(O)C[C@@H](C)C(=O)[C@H](C)[C@@H](O)[C@]1(C)O` [Compound [VI], 2R,3S,4S,5R,6S)-3,4,5-triacetoxy-6-[4-[[(2S,3R,4S,6R)-4-(dimethylamino)-2-[[(3R,4S,5S,6R,7R,9R,11R,12R,13S,14R)-14-ethyl-7,12,13-trihydroxy-4-[(2S,4R,5S,6S)-5-hydroxy-4-methoxy-4,6-dimethyl-tetrahydropyran-2-yl]oxy-3,5,7,9,11,13-hexamethyl-2,10-dioxo-oxacyclotetradec-6-yl]oxy]-6-methyl-tetrahydropyran-3-yl]oxycarbonyloxymethyl]-2-nitro-phenoxy]tetrahydropyran-2-yl]methyl acetate], the “effect on the senescent cells (SRB)” value in assay [1] (BrdU-treated MRC5) is “little effect”. Moreover, the “preference for normal, non-senescent control cells (SRB)” value in assay [13] (compared to Roxithromycin and Erythromycin) was “preference for the normal, non-senescent control cells”.
